Results on four compounds are retold here after PubChem BioAssay (NCI).

Structures are written as SMILES.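 Growth conditions: 96-well plates. Treatment: test compound, 48 hours, 5 concentrations. Analysis: linear interpolation between bracketing concentrations; unreached endpoints set to highest concentration. The concentration for full growth arrest is given as TGI.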

The first experiment deals with MOLT-4 leukemia. The experiment in a line: DTP human tumour cell line panel, 48 h.
As to `CC(=O)O[C@H]1CC[C@@]2(C)C(=CC[C@H]3[C@@H]4C[C@H](N5CCCC5)[C@H](OC(C)=O)[C@@]4(C)CC[C@@H]32)C1`, the TGI is > 100 µM.

Consider `CC1=NN2C(=N)/C(=C/c3ccco3)C(=O)N=C2S1`, for which the TGI was > 100 µM.

Consider `COc1ccc(Nc2nc(NS(=O)(=O)c3cc(C)c(Cl)cc3S)n[nH]2)cc1`, for which the TGI was > 100 µM.

Another experiment concerns NCI-H226 lung. The experiment in a line: DTP human tumour cell line panel, 48 h.
For `CC(=O)O[C@H]1CC[C@@]2(C)C(=CC[C@H]3[C@@H]4C[C@H](N5CCCC5)[C@H](OC(C)=O)[C@@]4(C)CC[C@@H]32)C1`, the TGI was > 100 µM.

Take `CC1=NN2C(=N)/C(=C/c3ccco3)C(=O)N=C2S1`: the TGI was > 100 µM.

As to `COc1cccc(C2CC(C)=Nc3c(ccc4c3C(=O)c3ccccc3C4=O)N2)c1O` (centres undefined), the TGI was > 100 µM.

Take `COc1ccc(Nc2nc(NS(=O)(=O)c3cc(C)c(Cl)cc3S)n[nH]2)cc1`: the TGI is > 100 µM.

The subject of the next experiment is NCI-H23 lung. The experiment can be described thus: DTP human tumour cell line panel, 48 h.
With `CC(=O)O[C@H]1CC[C@@]2(C)C(=CC[C@H]3[C@@H]4C[C@H](N5CCCC5)[C@H](OC(C)=O)[C@@]4(C)CC[C@@H]32)C1`, the TGI was > 100 µM.

As for `CC1=NN2C(=N)/C(=C/c3ccco3)C(=O)N=C2S1`, the TGI is > 100 µM.

As to `COc1cccc(C2CC(C)=Nc3c(ccc4c3C(=O)c3ccccc3C4=O)N2)c1O` (centres undefined), the TGI was > 100 µM.

As for `COc1ccc(Nc2nc(NS(=O)(=O)c3cc(C)c(Cl)cc3S)n[nH]2)cc1`, the TGI was > 100 µM.

For a further experiment, the system named is NCI-H460 lung. The experiment in a line: DTP human tumour cell line panel, 48 h.
For `CC(=O)O[C@H]1CC[C@@]2(C)C(=CC[C@H]3[C@@H]4C[C@H](N5CCCC5)[C@H](OC(C)=O)[C@@]4(C)CC[C@@H]32)C1`, the TGI is > 100 µM.

As for `CC1=NN2C(=N)/C(=C/c3ccco3)C(=O)N=C2S1`, the TGI was > 100 µM.

Regarding `COc1cccc(C2CC(C)=Nc3c(ccc4c3C(=O)c3ccccc3C4=O)N2)c1O` (centres undefined), the TGI is > 100 µM.

For `COc1ccc(Nc2nc(NS(=O)(=O)c3cc(C)c(Cl)cc3S)n[nH]2)cc1`, the TGI was > 100 µM.

Another experiment concerns NCI-H522 lung. The experiment can be described thus: DTP human tumour cell line panel, 48 h.
As to `CC(=O)O[C@H]1CC[C@@]2(C)C(=CC[C@H]3[C@@H]4C[C@H](N5CCCC5)[C@H](OC(C)=O)[C@@]4(C)CC[C@@H]32)C1`, the TGI is > 100 µM.

On to `CC1=NN2C(=N)/C(=C/c3ccco3)C(=O)N=C2S1`, for which the TGI is > 100 µM.

With `COc1ccc(Nc2nc(NS(=O)(=O)c3cc(C)c(Cl)cc3S)n[nH]2)cc1`, the TGI is > 100 µM.

Another experiment concerns NCI/ADR-RES ovarian. The experiment can be described thus: DTP human tumour cell line panel, 48 h.
As for `CC(=O)O[C@H]1CC[C@@]2(C)C(=CC[C@H]3[C@@H]4C[C@H](N5CCCC5)[C@H](OC(C)=O)[C@@]4(C)CC[C@@H]32)C1`, the TGI was > 100 µM.

`CC1=NN2C(=N)/C(=C/c3ccco3)C(=O)N=C2S1`: the TGI was > 100 µM.

For `COc1ccc(Nc2nc(NS(=O)(=O)c3cc(C)c(Cl)cc3S)n[nH]2)cc1`, the TGI was > 100 µM.

A further experiment deals with OVCAR-3 ovarian. The experiment in a line: DTP human tumour cell line panel, 48 h.
Consider `CC(=O)O[C@H]1CC[C@@]2(C)C(=CC[C@H]3[C@@H]4C[C@H](N5CCCC5)[C@H](OC(C)=O)[C@@]4(C)CC[C@@H]32)C1`, for which the TGI is > 100 µM.

`CC1=NN2C(=N)/C(=C/c3ccco3)C(=O)N=C2S1`: the TGI is > 100 µM.

`COc1cccc(C2CC(C)=Nc3c(ccc4c3C(=O)c3ccccc3C4=O)N2)c1O` (centres undefined) returned a TGI of 95.1 µM.

As for `COc1ccc(Nc2nc(NS(=O)(=O)c3cc(C)c(Cl)cc3S)n[nH]2)cc1`, the TGI is > 100 µM.

The next experiment deals with OVCAR-4 ovarian. The experiment in a line: DTP human tumour cell line panel, 48 h.
Take `CC(=O)O[C@H]1CC[C@@]2(C)C(=CC[C@H]3[C@@H]4C[C@H](N5CCCC5)[C@H](OC(C)=O)[C@@]4(C)CC[C@@H]32)C1`: the TGI was > 100 µM.

For the compound `CC1=NN2C(=N)/C(=C/c3ccco3)C(=O)N=C2S1`, the TGI was > 100 µM.

For the compound `COc1ccc(Nc2nc(NS(=O)(=O)c3cc(C)c(Cl)cc3S)n[nH]2)cc1`, the TGI is > 100 µM.

The subject of another experiment is OVCAR-5 ovarian. The experiment in a line: DTP human tumour cell line panel, 48 h.
For `CC(=O)O[C@H]1CC[C@@]2(C)C(=CC[C@H]3[C@@H]4C[C@H](N5CCCC5)[C@H](OC(C)=O)[C@@]4(C)CC[C@@H]32)C1`, the TGI was > 100 µM.

`CC1=NN2C(=N)/C(=C/c3ccco3)C(=O)N=C2S1`: the total growth inhibition concentration (TGI) was > 100 µM.

In the case of `COc1cccc(C2CC(C)=Nc3c(ccc4c3C(=O)c3ccccc3C4=O)N2)c1O` (centres undefined), the TGI is > 100 µM.

Turning to `COc1ccc(Nc2nc(NS(=O)(=O)c3cc(C)c(Cl)cc3S)n[nH]2)cc1`, the TGI is > 100 µM.

The subject of a further experiment is OVCAR-8 ovarian. The experiment can be described thus: DTP human tumour cell line panel, 48 h.
As for `CC(=O)O[C@H]1CC[C@@]2(C)C(=CC[C@H]3[C@@H]4C[C@H](N5CCCC5)[C@H](OC(C)=O)[C@@]4(C)CC[C@@H]32)C1`, the TGI is > 100 µM.

As to `CC1=NN2C(=N)/C(=C/c3ccco3)C(=O)N=C2S1`, the TGI is > 100 µM.

With `COc1cccc(C2CC(C)=Nc3c(ccc4c3C(=O)c3ccccc3C4=O)N2)c1O` (centres undefined), the TGI was > 100 µM.

In the case of `COc1ccc(Nc2nc(NS(=O)(=O)c3cc(C)c(Cl)cc3S)n[nH]2)cc1`, the TGI was > 100 µM.

The test system of a further experiment is PC-3 prostate. The experiment in a line: DTP human tumour cell line panel, 48 h.
Take `CC(=O)O[C@H]1CC[C@@]2(C)C(=CC[C@H]3[C@@H]4C[C@H](N5CCCC5)[C@H](OC(C)=O)[C@@]4(C)CC[C@@H]32)C1`: the TGI is > 100 µM.

Consider `CC1=NN2C(=N)/C(=C/c3ccco3)C(=O)N=C2S1`, for which the TGI is > 100 µM.

With `COc1ccc(Nc2nc(NS(=O)(=O)c3cc(C)c(Cl)cc3S)n[nH]2)cc1`, the TGI is > 100 µM.

Another experiment has as its system RPMI-8226 leukemia. The experiment can be described thus: DTP human tumour cell line panel, 48 h.
On to `CC(=O)O[C@H]1CC[C@@]2(C)C(=CC[C@H]3[C@@H]4C[C@H](N5CCCC5)[C@H](OC(C)=O)[C@@]4(C)CC[C@@H]32)C1`, for which the TGI is > 100 µM.

Take `CC1=NN2C(=N)/C(=C/c3ccco3)C(=O)N=C2S1`: the TGI is > 100 µM.

`COc1cccc(C2CC(C)=Nc3c(ccc4c3C(=O)c3ccccc3C4=O)N2)c1O` (centres undefined): the TGI was > 100 µM.

As for `COc1ccc(Nc2nc(NS(=O)(=O)c3cc(C)c(Cl)cc3S)n[nH]2)cc1`, the TGI is > 100 µM.

The next experiment relates to RXF 393 renal. The experiment in a line: DTP human tumour cell line panel, 48 h.
As for `CC(=O)O[C@H]1CC[C@@]2(C)C(=CC[C@H]3[C@@H]4C[C@H](N5CCCC5)[C@H](OC(C)=O)[C@@]4(C)CC[C@@H]32)C1`, the TGI was > 100 µM.

In the case of `CC1=NN2C(=N)/C(=C/c3ccco3)C(=O)N=C2S1`, the TGI is > 100 µM.

In the case of `COc1ccc(Nc2nc(NS(=O)(=O)c3cc(C)c(Cl)cc3S)n[nH]2)cc1`, the TGI is > 100 µM.

A further experiment has as its system SF-268 CNS. The experiment in a line: DTP human tumour cell line panel, 48 h.
As for `CC(=O)O[C@H]1CC[C@@]2(C)C(=CC[C@H]3[C@@H]4C[C@H](N5CCCC5)[C@H](OC(C)=O)[C@@]4(C)CC[C@@H]32)C1`, the TGI is > 100 µM.

As to `CC1=NN2C(=N)/C(=C/c3ccco3)C(=O)N=C2S1`, the TGI is > 100 µM.

Turning to `COc1ccc(Nc2nc(NS(=O)(=O)c3cc(C)c(Cl)cc3S)n[nH]2)cc1`, the TGI is > 100 µM.

In a further experiment the test system is SF-295 CNS. The experiment in a line: DTP human tumour cell line panel, 48 h.
Consider `CC(=O)O[C@H]1CC[C@@]2(C)C(=CC[C@H]3[C@@H]4C[C@H](N5CCCC5)[C@H](OC(C)=O)[C@@]4(C)CC[C@@H]32)C1`, for which the concentration for total growth inhibition (TGI) was > 100 µM.

As to `CC1=NN2C(=N)/C(=C/c3ccco3)C(=O)N=C2S1`, the concentration for total growth inhibition (TGI) is > 100 µM.

As to `COc1ccc(Nc2nc(NS(=O)(=O)c3cc(C)c(Cl)cc3S)n[nH]2)cc1`, the TGI was > 100 µM.

Another experiment concerns SF-539 CNS. The experiment can be described thus: DTP human tumour cell line panel, 48 h.
Regarding `CC(=O)O[C@H]1CC[C@@]2(C)C(=CC[C@H]3[C@@H]4C[C@H](N5CCCC5)[C@H](OC(C)=O)[C@@]4(C)CC[C@@H]32)C1`, the TGI is > 65.3 µM.

For `CC1=NN2C(=N)/C(=C/c3ccco3)C(=O)N=C2S1`, the TGI is > 100 µM.
